One experiment addresses T1, Lipoxygenase (Homo sapiens, UniProt P09917).
T1 construct: The PMNs were prepared from 200-300 ml of heparinized blood of healthy donors; endogenous in cells; host or cells: human polymorphonuclear leukocytes from heparinized blood of healthy donors (intact cells)
T1 sequence (P09917 1-674): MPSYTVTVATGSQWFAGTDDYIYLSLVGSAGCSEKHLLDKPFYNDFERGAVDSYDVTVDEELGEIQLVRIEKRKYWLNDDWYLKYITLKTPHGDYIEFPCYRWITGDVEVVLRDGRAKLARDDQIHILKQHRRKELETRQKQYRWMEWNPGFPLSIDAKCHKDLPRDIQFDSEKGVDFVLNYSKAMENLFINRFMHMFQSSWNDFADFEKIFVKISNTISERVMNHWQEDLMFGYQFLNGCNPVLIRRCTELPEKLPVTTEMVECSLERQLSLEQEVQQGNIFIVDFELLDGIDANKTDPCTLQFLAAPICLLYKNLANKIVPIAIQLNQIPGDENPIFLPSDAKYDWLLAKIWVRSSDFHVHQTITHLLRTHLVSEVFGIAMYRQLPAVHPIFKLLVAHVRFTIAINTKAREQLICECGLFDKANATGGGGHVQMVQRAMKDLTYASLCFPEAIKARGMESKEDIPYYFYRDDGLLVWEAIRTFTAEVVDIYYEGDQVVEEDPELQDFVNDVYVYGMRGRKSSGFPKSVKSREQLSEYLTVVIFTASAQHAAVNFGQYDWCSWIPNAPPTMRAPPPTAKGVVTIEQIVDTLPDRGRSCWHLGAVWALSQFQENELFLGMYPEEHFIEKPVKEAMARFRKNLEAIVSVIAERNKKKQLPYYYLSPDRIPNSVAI
The experiment is described as follows: Inhibition of lipoxygenase activity by human polymorphonuclear leukocytes (PMNs). The format is cell-based. The note with it: test compound 1×10^-4 m, 37° C., 5 minutes, arachidonic acid 1-C14 1×10^-4 M; for Percent Inhibition Lipoxygenese Act. 5-HETE: product 5-hydroxy-7,9,11,14-eicosatetraenoic acid; for Percent Inhibition Lipoxygenese Act. LTB4: product Leukotriene B4. The procedure: (§1) Assay for Inhibition of Lipoxygenase Activity By Human Polymorphonuclear Leukocytes (PMNs)
(§2) 1. Preparation of the cells:
(§3) The PMNs were prepared from 200-300 ml of heparinized blood of healthy donors not receiving any medication for at least 7 days using Ficoll-Hypaque gradients. In general, PMNs were greater than 98% pure and their viability was assessed by dye-exclusion to be better than 95%. The cells were suspended in phosphate buffered saline containing 1.0 mM CaCl2 (PH 7.4) and 0.1 ovalbumin, and used within 30 minutes.
Incubations were carried out at 37° C. for 5 minutes in a total volume of 0.2 ml. Arachidonic acid 1-C^14 (1×10^-4 M unless otherwise indicated, and approximately 300,000 cpm) was added to a suspension of cells (ca 5×10^6) to initiate the reaction. Prior to the addition of above substrate, the test substances were added to the cells at appropriate concentrations and pre-incubated at 37° C. for 5 minutes. In general, stock solutions of test substances were prepared in ethanol (or other appropriate solvents) and diluted with either incubation buffer or water. […] Boiled enzyme blanks and controls containing no test compound were always included. The incubations were terminated by the addition of 0.6 ml of methanol, vortexed and kept on ice for 30 minutes. An internal standard (5-hydroxy-7,9,11,14-eicosatetraenoic acid methyl ester) and 1.6 ml of deionized water was added, vortexed, centrifuged, supernatants decanted and kept in the freezer overnight. Extraction and purification of the arachidonic acid and lipoxygenase products were carried out using "Baker" disposable C18 extraction columns (1 ml capacity). The columns were prewashed with methanol (2.0 ml) followed by deionized water (2 ml). After most of the solvent was removed, 2.0 ml of the supernatant was applied to the extraction column and the solvent was allowed to flow through. The column was then washed with 5 ml of deionized water and the eludate was discarded. The column was then eluted with 2.0 ml of methanol and the eludate was forced through by N2, collected and the solvent removed in a vacuum oven overnight. The residue was carefully dissolved in […] of the mobile phase (methanol 75:H2 O 25:acetic acid 0.01) and a 10 microliter aliquot counted to estimate the recoveries. An aliquot of an extract from a control tube was injected into a Waters μBondpack C-18 reverse phase column and the retention times of cycloxygenase and lipoxygenase products determined both by OD measurement at 244 nM and by collecting 1 min. fractions and determining radioactivity. Based on this information, programmed collection of fractions (total of 6) using a fraction collector was made with each of the extracts injected into the column by an autoinjector (WISP) and the fractions counted for radioactivity in a Packard Liquid Scintillation Spectrometer.
Using this procedure the following compounds were tested at a concentration of 1×10^-4 m and found to have the denoted lipoxygenase and cycloxygenase activity: […]

The next experiment addresses T2, Cyclooxygenase (Homo sapiens, UniProt P23219).
T2 construct: The PMNs were prepared from 200-300 ml of heparinized blood of healthy donors; endogenous in cells; host or cells: human polymorphonuclear leukocytes from heparinized blood of healthy donors (intact cells, more than 98% pure)
In words: Inhibition of cyclooxygenase activity in the human PMN arachidonic acid incubation. The format is cell-based. The note with it: test compound 1×10^-4 m; human PMNs, 37° C., 5 minutes; arachidonic acid 1-C14 1×10^-4 M. On the procedure: as §1, §2, §3
Incubations were carried out at 37° C. for 5 minutes in a total volume of 0.2 ml. Arachidonic acid 1-C^14 (1×10^-4 M unless otherwise indicated, and approximately 300,000 cpm) was added to a suspension of cells (ca 5×10^6) to initiate the reaction. Prior to the addition of above substrate, the test substances were added to the cells at appropriate concentrations and pre-incubated at 37° C. for 5 minutes. In general, stock solutions of test substances were prepared in ethanol (or other appropriate solvents) and diluted with either incubation buffer or water. […] Boiled enzyme blanks and controls containing no test compound were always included. The incubations were terminated by the addition of 0.6 ml of methanol, vortexed and kept on ice for 30 minutes. […] The residue was carefully dissolved in […] of the mobile phase (methanol 75:H2 O 25:acetic acid 0.01) and a 10 microliter aliquot counted to estimate the recoveries. An aliquot of an extract from a control tube was injected into a Waters μBondpack C-18 reverse phase column and the retention times of cycloxygenase and lipoxygenase products determined both by OD measurement at 244 nM and by collecting 1 min. fractions and determining radioactivity. Based on this information, programmed collection of fractions (total of 6) using a fraction collector was made with each of the extracts injected into the column by an autoinjector (WISP) and the fractions counted for radioactivity in a Packard Liquid Scintillation Spectrometer. […]

This is an account of results in patent US4515727A, “Allene containing arachidonic acid derivatives” (SYNTEX (U.S.A.) Inc., priority 1982, dated 1985).

T2 sequence (P23219 24-599): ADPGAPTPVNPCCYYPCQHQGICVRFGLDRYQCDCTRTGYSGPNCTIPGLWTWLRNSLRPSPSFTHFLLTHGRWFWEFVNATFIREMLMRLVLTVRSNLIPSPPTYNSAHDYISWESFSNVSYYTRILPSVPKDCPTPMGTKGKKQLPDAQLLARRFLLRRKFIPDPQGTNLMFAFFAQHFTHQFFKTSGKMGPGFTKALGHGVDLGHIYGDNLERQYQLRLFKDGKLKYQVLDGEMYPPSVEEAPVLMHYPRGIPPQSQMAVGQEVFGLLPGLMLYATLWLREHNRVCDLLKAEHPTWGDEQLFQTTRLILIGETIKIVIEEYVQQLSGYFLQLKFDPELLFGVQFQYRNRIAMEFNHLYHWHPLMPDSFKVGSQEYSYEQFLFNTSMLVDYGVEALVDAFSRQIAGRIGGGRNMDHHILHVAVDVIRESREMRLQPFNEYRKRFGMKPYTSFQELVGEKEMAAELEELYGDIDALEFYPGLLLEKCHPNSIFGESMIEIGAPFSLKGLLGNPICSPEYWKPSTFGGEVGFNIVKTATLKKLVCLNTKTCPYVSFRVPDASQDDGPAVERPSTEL

For `CCCCC/C=C\C/C=C\C/C=C\CC=C=CCCC(=O)O` [4,5,8Z,11Z,14Z-eicosatetraenoic acid], on Lipoxygenase, the “Percent Inhibition Lipoxygenese Act. 5-HETE” value stood at 9% and the “Percent Inhibition Lipoxygenese Act. LTB4” value was determined as 20%. For the same compound, the “Percent Inhibition Cyclooxygenese Act. Total "PGs"” value at Cyclooxygenase is given as 9%.

With `CCCCCCCCCCCSCC=C=CCCC(=O)O` [8-thianonadeca-4,5-dienoic acid], at Lipoxygenase, the “Percent Inhibition Lipoxygenese Act. 5-HETE” value came out at 46% and the “Percent Inhibition Lipoxygenese Act. LTB4” value is 37%. Also, the “Percent Inhibition Cyclooxygenese Act. Total "PGs"” value on Cyclooxygenase came out at 22%.

In the case of `CCCCCCCCCCC/C=C\CC=C=CCCC(=O)O` [4,5,8Z-eicosatrienoic acid], on Lipoxygenase, the “Percent Inhibition Lipoxygenese Act. 5-HETE” value turned out to be 42% and the “Percent Inhibition Lipoxygenese Act. LTB4” value came out at 47%. Besides, at Cyclooxygenase, the “Percent Inhibition Cyclooxygenese Act. Total "PGs"” value is reported as 7%.
